SMILES strings stand for the structures. Values joined by “and” are separate entries in the source; they are usually repeats but may differ in a detail not shown here. Equal entries are not always repeated.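 A five-concentration, 48-hour dose response in 96-well plates underlies each endpoint, interpolated linearly between surrounding concentrations. GI50: concentration for 50% inhibition of growth. TGI: concentration producing complete growth inhibition.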

We go through 14 molecules from PubChem BioAssay (NCI).

Test systems include SF-268 CNS; TK-10 renal; NCI-H226 lung; K-562 leukemia; HCT-116 colon; SK-MEL-2 melanoma; NCI-H460 lung; HL-60(TB) leukemia; A498 renal; NCI-H522 lung.
What all share (assay): NCI tumour cell line growth inhibition, 48 h

With `O=[N+]([O-])c1cccc(-c2nc(-c3ccc(Cl)cc3Cl)cn2-c2ccccc2)c1`, the GI50 in the experiment with SF-268 CNS is 1.14 µM; in the experiment with TK-10 renal, 0.612 µM; with NCI-H226 lung it was 3.17 µM; in the experiment on K-562 leukemia, over 9.26 µM; in the experiment on HCT-116 colon, 0.855 µM; with SK-MEL-2 melanoma, 1.9 µM. Also, the GI50 in the experiment on NCI-H460 lung is 0.598 µM; with HL-60(TB) leukemia it was over 33.3 µM; in the experiment with NCI-H522 lung, 3.25 µM. In addition, the TGI in the experiment on SF-268 CNS is 5.5 µM; with TK-10 renal, 1.13 µM; with NCI-H226 lung it was over 33.3 µM; with K-562 leukemia, over 33.3 µM; in the experiment on HCT-116 colon, 2.02 µM; in the experiment on SK-MEL-2 melanoma, over 11.8 µM. In addition, the TGI in the experiment on NCI-H460 lung was 1.12 µM; in the experiment with HL-60(TB) leukemia, over 33.3 µM; in the experiment with A498 renal, over 9.06 µM; with NCI-H522 lung, over 20.2 µM.

On to `c1ccc(CN2CCc3[nH]c4ccccc4c3C2)cc1`, for which the TGI in the experiment with SF-268 CNS was over 86.8 µM; in the experiment with TK-10 renal it was over 71 µM; in the experiment on NCI-H226 lung it was over 96.8 µM; with K-562 leukemia, 55.1 µM; in the experiment with HCT-116 colon it was 43.6 µM; in the experiment with SK-MEL-2 melanoma it was 41.1 µM. The TGI is 31 µM in the experiment on NCI-H460 lung, 46.3 µM in the experiment on HL-60(TB) leukemia, 88.1 µM in the experiment on A498 renal and 42.4 µM in the experiment on NCI-H522 lung.

As to `Cc1ccc(C(=O)NCCCOc2ccc(N3C(N)=NC(N)=NC3(C)C)cc2Cl)cc1S(=O)(=O)F`, the GI50 in the experiment on SF-268 CNS was 10.7 µM; with TK-10 renal it was over 100 µM; in the experiment with NCI-H226 lung, over 100 µM; with K-562 leukemia, 8.81 µM; in the experiment with HCT-116 colon, 15 µM; in the experiment on SK-MEL-2 melanoma it was over 100 µM. Besides, the GI50 with NCI-H460 lung is 8.44 µM; in the experiment on HL-60(TB) leukemia it was over 100 µM; with A498 renal, over 100 µM; in the experiment with NCI-H522 lung it was 61.7 µM. The TGI in the experiment on SF-268 CNS, in the experiment with TK-10 renal, with NCI-H226 lung, in the experiment with K-562 leukemia, with HCT-116 colon and with SK-MEL-2 melanoma was over 100 µM throughout. For the same molecule, the TGI in the experiment with NCI-H460 lung, with HL-60(TB) leukemia, in the experiment on A498 renal and in the experiment with NCI-H522 lung was over 100 µM each time.

For `CC(C)c1ccc(C2NC(=S)NC3=C2c2ccccc2C3=O)cc1` (stereo not drawn), the TGI in the experiment with SF-268 CNS is over 52.4 µM; in the experiment with TK-10 renal it was over 57.1 µM; in the experiment on NCI-H226 lung, over 64.6 µM; in the experiment with K-562 leukemia, over 60 µM; with HCT-116 colon, over 58.4 µM; with SK-MEL-2 melanoma, 41.7 µM. The TGI is over 67.3 µM in the experiment on NCI-H460 lung, 32.5 µM with HL-60(TB) leukemia, over 60.8 µM with A498 renal and 41.9 µM with NCI-H522 lung.

On to `O=C(Cc1nc2sc3c(c2c(=O)[nH]1)CCCC3)Nc1ccccc1`, for which the TGI in the experiment with SF-268 CNS, in the experiment with TK-10 renal, in the experiment on NCI-H226 lung, with K-562 leukemia, with HCT-116 colon and in the experiment on SK-MEL-2 melanoma was over 100 µM in each case. Further, the TGI with NCI-H460 lung, with HL-60(TB) leukemia, in the experiment on A498 renal and in the experiment on NCI-H522 lung was over 100 µM each time.

As to `CCC/C=C\C=C\C1(NS(=O)(=O)c2ccc(C)cc2)CCC(C(C)(C)C)CC1` (stereo not drawn), the TGI in the experiment with SF-268 CNS came to 40 µM; in the experiment on TK-10 renal it was 69.9 µM; in the experiment on NCI-H226 lung, 38 µM; in the experiment with K-562 leukemia it was 34.2 µM; with HCT-116 colon it was 38.3 µM; with SK-MEL-2 melanoma it was 29 µM. Further, the TGI with NCI-H460 lung was 36.2 µM; in the experiment with HL-60(TB) leukemia it was 23.2 µM; with A498 renal, 46.4 µM; in the experiment on NCI-H522 lung it was 12.1 µM.

For `O=c1c2ccccc2[nH]c2c(O)ccc(O)c12`, the TGI with SF-268 CNS was 76.5 µM; in the experiment on TK-10 renal it was 52.6 µM; in the experiment on NCI-H226 lung, 66.4 µM; in the experiment with K-562 leukemia, 56.3 µM; with HCT-116 colon, 37.9 µM; in the experiment with SK-MEL-2 melanoma, over 100 µM. Further, the TGI was found to be 50.9 µM with NCI-H460 lung, 10.2 µM in the experiment on HL-60(TB) leukemia, 96 µM in the experiment on A498 renal and 29 µM in the experiment with NCI-H522 lung.

Take `Cc1ccc(Nc2cc(Cl)c([N+](=O)[O-])cc2[N+](=O)[O-])cc1`: the GI50 in the experiment on SF-268 CNS was 3.63 µM; with TK-10 renal it was 6.03 µM; in the experiment with NCI-H226 lung it was 2.59 µM; with K-562 leukemia, 0.614 µM; with HCT-116 colon, 2.59 µM; in the experiment on SK-MEL-2 melanoma it was 3.31 µM. Besides, the GI50 in the experiment on NCI-H460 lung is 2.35 µM; with HL-60(TB) leukemia, 3.62 µM; in the experiment on A498 renal, 13.3 µM; in the experiment on NCI-H522 lung, 0.805 µM. In addition, the TGI was 10.3 µM in the experiment on SF-268 CNS; 17.5 µM in the experiment with TK-10 renal; 6.81 µM in the experiment with NCI-H226 lung; over 100 µM in the experiment with K-562 leukemia; 6.94 µM in the experiment on HCT-116 colon; 8.94 µM in the experiment with SK-MEL-2 melanoma. The TGI amounted to 5.45 µM with NCI-H460 lung, 14.6 µM with HL-60(TB) leukemia, 26.1 µM with A498 renal and 2.15 µM in the experiment with NCI-H522 lung.

For `COCCOCCOCc1n(Cc2ccc3ccccc3c2)c2ccccc2[n+]1Cc1ccc2ccccc2c1`, the GI50 with SF-268 CNS was 0.442 µM; in the experiment on TK-10 renal it was 0.772 µM; in the experiment on NCI-H226 lung, 0.957 µM; in the experiment on K-562 leukemia, 0.239 µM; with HCT-116 colon, 0.385 µM; in the experiment on SK-MEL-2 melanoma, 0.313 µM. The GI50 was 0.483 µM with NCI-H460 lung, 0.115 µM in the experiment on HL-60(TB) leukemia, 0.92 µM in the experiment with A498 renal and 0.303 µM in the experiment with NCI-H522 lung. Besides, the TGI in the experiment on SF-268 CNS worked out at 1.68 µM; in the experiment with TK-10 renal, 2.15 µM; in the experiment on NCI-H226 lung, 2.53 µM; in the experiment with K-562 leukemia, 1.46 µM; with HCT-116 colon, 1.65 µM; with SK-MEL-2 melanoma, 0.941 µM. Further, the TGI turned out to be 1.85 µM in the experiment with NCI-H460 lung, 0.38 µM with HL-60(TB) leukemia, 2.19 µM in the experiment on A498 renal and 1.3 µM in the experiment on NCI-H522 lung.

`N#Cc1ccc(/C=C(/C(=O)c2ccccc2)c2ccccc2)cc1`: the TGI in the experiment with SF-268 CNS was 41.1 µM; with TK-10 renal, 57 µM; with NCI-H226 lung, 31.5 µM; in the experiment with K-562 leukemia, over 24.7 µM; with HCT-116 colon, 11.3 µM; with SK-MEL-2 melanoma, 33.2 µM. The TGI with NCI-H460 lung turned out to be 47.5 µM; in the experiment with HL-60(TB) leukemia it was 9.81 µM; with A498 renal it was 40 µM; with NCI-H522 lung, 29.2 µM.

For `CCOC(=O)Nc1nc2ccccc2[nH]1`, the GI50 was over 100 µM with SF-268 CNS; 11.3 µM and > 27 µM in the experiment with TK-10 renal; 3.48 µM and 1.85 µM with K-562 leukemia; 5.34 µM and 4.52 µM in the experiment with HCT-116 colon; 3.44 µM and 4.49 µM with SK-MEL-2 melanoma; 4.27 µM and 3.6 µM in the experiment on NCI-H460 lung. Further, the GI50 in the experiment on HL-60(TB) leukemia is 2.64 µM and 2.02 µM; in the experiment on A498 renal, 2.42 µM and 3.81 µM; with NCI-H522 lung, 3.78 µM and 4.99 µM. Also, the TGI in the experiment on SF-268 CNS, in the experiment with TK-10 renal, with NCI-H226 lung, in the experiment on K-562 leukemia, in the experiment on HCT-116 colon and in the experiment on SK-MEL-2 melanoma was over 100 µM each time. Also, the TGI was over 100 µM in the experiment with NCI-H460 lung; 6.64 µM and > 20.1 µM with HL-60(TB) leukemia; over 28.8 µM with A498 renal; over 79.3 µM in the experiment with NCI-H522 lung.

As for `CCOC(=O)C(Cc1c[nH]c2cc(N(CCO)CCO)ccc12)(NC(C)=O)C(=O)OCC`, the GI50 with SF-268 CNS is 619 µM; in the experiment with TK-10 renal it was over 1000 µM; in the experiment on NCI-H226 lung it was over 1000 µM; with K-562 leukemia, 81.7 µM; with HCT-116 colon, 325 µM; with NCI-H460 lung, 433 µM. Also, the GI50 with HL-60(TB) leukemia was 133 µM; with A498 renal it was 570 µM; in the experiment with NCI-H522 lung it was 61.9 µM. The TGI in the experiment on SF-268 CNS was over 1000 µM; in the experiment with TK-10 renal it was over 1000 µM; in the experiment on NCI-H226 lung, over 1000 µM; with K-562 leukemia it was 501 µM; in the experiment on HCT-116 colon, over 1000 µM; with NCI-H460 lung, over 1000 µM. The TGI in the experiment with HL-60(TB) leukemia is 489 µM; with A498 renal, over 1000 µM; in the experiment with NCI-H522 lung, over 1000 µM.

On to `N#Cc1c(-c2ccccc2)cc(-c2ccc(N)cc2)[nH]c1=O`, for which the TGI in the experiment on SF-268 CNS, in the experiment on TK-10 renal, in the experiment on NCI-H226 lung, with K-562 leukemia, with HCT-116 colon and in the experiment on NCI-H460 lung was over 100 µM in each case. In addition, the TGI with HL-60(TB) leukemia, in the experiment with A498 renal and with NCI-H522 lung was over 100 µM throughout.

As for `CCN(CC)c1c(-c2ccccc2)n[nH]c1C(=O)OC`, the GI50 in the experiment on SF-268 CNS was 22.9 µM; with TK-10 renal, 22.5 µM; in the experiment with NCI-H226 lung, 16.9 µM; with K-562 leukemia, 31.2 µM; in the experiment with SK-MEL-2 melanoma, 42.5 µM; with NCI-H460 lung, 30.3 µM. For the same molecule, the GI50 in the experiment with HL-60(TB) leukemia was 18.7 µM; with A498 renal, 0.519 µM; with NCI-H522 lung, 18.5 µM. Moreover, the TGI in the experiment with SF-268 CNS is 59.7 µM; with TK-10 renal, 59.2 µM; in the experiment on NCI-H226 lung, 38.5 µM; in the experiment with K-562 leukemia, over 100 µM; with SK-MEL-2 melanoma, over 100 µM; in the experiment on NCI-H460 lung, over 100 µM. The TGI in the experiment with HL-60(TB) leukemia was 48.8 µM; in the experiment with A498 renal it was 31.7 µM; in the experiment with NCI-H522 lung, 50.7 µM.
